As a reminder, the inhibition is the drop in the measured response relative to a control, in per cent.

The target in this assay is Replicase polyprotein 1ab (Severe acute respiratory syndrome coronavirus 2) (UniProt P0DTD1).

Description: Functional biochemical assay to identify treatments for viral infectious disease that targets SARS-COV-2 nsp3 macrodomain, whereby the mechanism of action displaces an ADP-Ribose modified peptide from the binding site. Utilizing a time-resolved fluorescence method to measure binding by reading the emitted fluorescence intensity in two wavelengths.

Turning to `O=C(OCc1cccc(Cl)n1)c1ncnc2[nH]ccc12`, for the setting “Concentration 50.0 uM, Number of replicates 2.0, Standard deviation 4.164 %”, the inhibition was 11.4%.
As to `Nc1c(O)cccc1C(=O)N(CCC(=O)N1CCNCC1)Cc1cccc(Cl)c1`, the inhibition (Concentration 49.75 uM, Number of replicates 2.0, Standard deviation 0.165 %) was -1.24% and the inhibition (Concentration 99.5 uM, Number of replicates 2.0, Standard deviation 3.032 %) is 1.46%.
For `O=C(CCN(Cc1cccc(Cl)c1)C(=O)c1cnon1)N1CCNCC1`, the inhibition (Concentration 49.75 uM, Number of replicates 2.0, Standard deviation 0.478 %) is -2.44% and the inhibition (Concentration 99.5 uM, Number of replicates 2.0, Standard deviation 0.154 %) is -1.08%.
`Cc1ccc(NC(=O)c2cnn3ccc(C4CCN(C(=O)c5ccccc5)CC4)cc23)cc1C(=O)O`: the inhibition reads like this: (Concentration 49.75 uM, Number of replicates 2.0, Standard deviation 0.305 %) -1.05%; (Concentration 99.5 uM, Number of replicates 2.0, Standard deviation 2.043 %) -0.624%.
In the case of `Cn1nc(C(=O)O)cc1C(=O)N1CCC(c2ccn3ncc(C(=O)N4CCCCC4)c3c2)CC1`, the inhibition is, setting by setting: (Concentration 49.75 uM, Number of replicates 2.0, Standard deviation 5.569 %) 34.2%; (Concentration 99.5 uM, Number of replicates 2.0, Standard deviation 2.729 %) 52.7%.
On to `Cc1cnc(CCNc2ncnc3[nH]ncc23)c(C)c1`, for which the inhibition (Concentration 50.0 uM, Number of replicates 2.0, Standard deviation 4.479 %) came to 4.34%.
Turning to `O=C(Nc1ccccc1)Nc1ccc(C(=O)N2CCOCC23CCC3)cc1`, the inhibition reads like this: (Concentration 49.75 uM, Number of replicates 2.0, Standard deviation 0.885 %) -5.18%; (Concentration 99.5 uM, Number of replicates 2.0, Standard deviation 3.072 %) -3.18%.
As for `CNC(=O)c1cccc(CNC(=O)c2ncnc3[nH]ccc23)c1`, the inhibition (Concentration 50.0 uM, Number of replicates 2.0, Standard deviation 1.029 %) was -5.91%.
On to `Oc1ccccc1CNc1ncnc2[nH]cnc12`, for which the inhibition (Concentration 50.0 uM, Number of replicates 2.0, Standard deviation 0.892 %) was 1.9%.
As for `O=C(C[C@@H](NC(=O)c1ncnc2[nH]ccc12)C1CC1)NCc1ccc(C(=O)O)cc1`, the inhibition (Concentration 49.75 uM, Number of replicates 2.0, Standard deviation 1.213 %) was -9.86% and the inhibition (Concentration 99.5 uM, Number of replicates 2.0, Standard deviation 0.076 %) worked out at 0.768%.
As to `O=C(Nc1cnc2[nH]ncc2c1)c1ccc(Oc2cccc(Br)c2)nc1`, the inhibition (Concentration 50.0 uM, Number of replicates 2.0, Standard deviation 1.64 %) was -0.183%.
Regarding `C[C@]1(C(=O)O)CCCN1C(=O)c1ncnc2[nH]ccc12`, the inhibition (Concentration 50.0 uM, Number of replicates 2.0, Standard deviation 5.501 %) was -5.29% and the inhibition (Concentration 100.0 uM, Number of replicates 2.0, Standard deviation 0.477 %) was found to be 5.67%.
As for `Cc1ccnc(C2CCN(c3ncnc4[nH]ccc34)CC2)n1`, the inhibition (Concentration 50.0 uM, Number of replicates 2.0, Standard deviation 3.755 %) was 3.46%.
`COCc1nc(CNc2ncc3c(n2)COC3)cs1`: the inhibition (Concentration 50.0 uM, Number of replicates 2.0, Standard deviation 8.324 %) is -7.14%.
For `O=C(Nc1cnc2[nH]ncc2c1)c1cccc(-c2noc(C(F)(F)F)n2)c1`, the inhibition was -0.675% (Concentration 50.0 uM, Number of replicates 2.0, Standard deviation 7.077 %) and -1.62% (Concentration 100.0 uM, Number of replicates 2.0, Standard deviation 3.401 %).
Regarding `c1cnc([C@@H]2CCN(c3ncnc4[nH]ccc34)C2)cn1`, the inhibition (Concentration 50.0 uM, Number of replicates 2.0, Standard deviation 2.663 %) is -1.7%.
As for `O=S(=O)(Nc1cnc2[nH]ncc2c1)c1cnn(C2CCCC2)c1`, where the note is “Concentration 50.0 uM, Number of replicates 2.0, Standard deviation 0.633 %”, the inhibition is 0.415%.
`O=C(CCCc1cccnc1)Nc1cnc2[nH]ncc2c1`: for the setting “Concentration 50.0 uM, Number of replicates 2.0, Standard deviation 5.838 %”, the inhibition is -3.65%.
As for `O=C(c1ccccc1)N1CCC(c2ccn3ncc(C(=O)N4CCCC[C@H](O)C4)c3c2)CC1`, the inhibition reads like this: (Concentration 49.75 uM, Number of replicates 2.0, Standard deviation 40.732 %) 17.8%; (Concentration 99.5 uM, Number of replicates 2.0, Standard deviation 41.407 %) 29.8%.
With `Cc1cc(C(=O)Nc2[nH]nc3nc(O)ccc23)c2c(C)nn(C)c2n1`, the inhibition is, setting by setting: (Concentration 50.0 uM, Number of replicates 2.0, Standard deviation 0.36 %) -6.17%; (Concentration 100.0 uM, Number of replicates 2.0, Standard deviation 2.675 %) -3.32%.
Consider `c1nc(NCc2cnc3sccn23)c2[nH]cnc2n1`, for which the inhibition by setting is: (Concentration 50.0 uM, Number of replicates 2.0, Standard deviation 7.011 %) -4.78%; (Concentration 100.0 uM, Number of replicates 2.0, Standard deviation 4.457 %) 5.65%.
As for `Cn1nncc1C(=O)N(CCC(=O)N1CCNCC1)Cc1cccc(Cl)c1`, the inhibition is, setting by setting: (Concentration 49.75 uM, Number of replicates 2.0, Standard deviation 1.263 %) 0.447%; (Concentration 99.5 uM, Number of replicates 2.0, Standard deviation 1.735 %) -2.15%.
`O=C(Nc1cnc2[nH]ncc2c1)C1(c2ccccc2)CC1`: the inhibition (Concentration 50.0 uM, Number of replicates 2.0, Standard deviation 8.824 %) was 3.21%.
In the case of `O=C(c1ccccc1)N1CCC(c2ccn3ncc(C(=O)N4CCn5ncnc5C4)c3c2)CC1`, the inhibition reads like this: (Concentration 49.75 uM, Number of replicates 2.0, Standard deviation 0.529 %) -3.77%; (Concentration 99.5 uM, Number of replicates 2.0, Standard deviation 3.194 %) -3.52%.
Regarding `CC(C)[C@@H]1[C@H](O)CCN1c1ncnc2[nH]ccc12`, the inhibition came out at 17.7% (Concentration 49.75 uM, Number of replicates 2.0, Standard deviation 3.675 %) and 32.1% (Concentration 99.5 uM, Number of replicates 2.0, Standard deviation 0.827 %).
As to `CN(C)[C@@H]1CCCN(C(=O)c2cnc3c(c2)c(=O)[nH]c(=O)n3C)CC1`, the inhibition (Concentration 50.0 uM, Number of replicates 2.0, Standard deviation 1.745 %) is -8.97%.
In the case of `CN1CCOc2cccc(NC(=O)Nc3cnc4[nH]ncc4c3)c21`, the inhibition (Concentration 50.0 uM, Number of replicates 2.0, Standard deviation 1.985 %) is -6.54%.
Take `CCC(CC)(C(=O)Nc1nc(C)nc2[nH]ccc12)C(=O)OC(C)(C)C`: the inhibition is, setting by setting: (Concentration 50.0 uM, Number of replicates 2.0, Standard deviation 5.081 %) -9.46%; (Concentration 100.0 uM, Number of replicates 2.0, Standard deviation 0.41 %) -4.71%.
In the case of `O=C(NCc1nc(-c2ccco2)n[nH]1)c1cc(=O)n2ncnc2[nH]1`, the inhibition (Concentration 50.0 uM, Number of replicates 2.0, Standard deviation 1.646 %) was -2.6%.
In the case of `C[C@@H](Nc1ncnc2[nH]ccc12)c1cnn(CC2CCC2)c1`, the inhibition by setting is: (Concentration 49.75 uM, Number of replicates 2.0, Standard deviation 1.153 %) -0.451%; (Concentration 99.5 uM, Number of replicates 2.0, Standard deviation 1.366 %) 4.9%.
Regarding `Clc1cnc(OCCNc2ncnc3[nH]ccc23)c(Cl)c1`, the inhibition is -4.3% (Concentration 50.0 uM, Number of replicates 2.0, Standard deviation 2.048 %) and -7.69% (Concentration 100.0 uM, Number of replicates 2.0, Standard deviation 3.465 %).
In the case of `c1nc(N[C@@H]2CCCc3c2cnn3C2CCCC2)c2cc[nH]c2n1`, the inhibition by setting is: (Concentration 49.75 uM, Number of replicates 2.0, Standard deviation 0.354 %) 0.884%; (Concentration 99.5 uM, Number of replicates 2.0, Standard deviation 0.15 %) 14.3%.
As for `c1ccc([C@@H](CNc2ncnc3n[nH]cc23)N2CCOCC2)cc1`, the inhibition (Concentration 50.0 uM, Number of replicates 2.0, Standard deviation 1.427 %) is -0.781%.
`Fc1ccc(F)c(Sc2ncnc3[nH]ccc23)c1`: the inhibition (Concentration 50.0 uM, Number of replicates 2.0, Standard deviation 6.588 %) was -1.15%.
`O=C(CCN(Cc1cccc(Cl)c1)C(=O)[C@@H]1C[C@@H](O)CN1)N1CCNCC1`: the inhibition (Concentration 49.75 uM, Number of replicates 2.0, Standard deviation 1.654 %) is -3.54% and the inhibition (Concentration 99.5 uM, Number of replicates 2.0, Standard deviation 6.509 %) turned out to be 4.74%.
With `CC[C@@H]1C[C@@H](C(=O)Nc2ncnc3[nH]c(C)c(C)c23)CCO1`, the inhibition (Concentration 50.0 uM, Number of replicates 2.0, Standard deviation 1.684 %) was found to be 12.1%.
Take `O=C(c1nc(=O)[nH][nH]1)N1CCC(c2ccn3ncc(C(=O)N4CCCCC4)c3c2)CC1`: the inhibition is, setting by setting: (Concentration 49.75 uM, Number of replicates 2.0, Standard deviation 0.837 %) 23.4%; (Concentration 99.5 uM, Number of replicates 2.0, Standard deviation 3.14 %) 34.6%.
Regarding `Nc1ncc(C(=O)N(CCC(=O)N2CCNCC2)Cc2cccc(Cl)c2)cn1`, the inhibition was -2.76% (Concentration 49.75 uM, Number of replicates 2.0, Standard deviation 3.901 %) and -1.73% (Concentration 99.5 uM, Number of replicates 2.0, Standard deviation 0.039 %).
Regarding `C=CCn1c(Sc2ncnc3[nH]ccc23)nc2sccc2c1=O`, the inhibition (Concentration 50.0 uM, Number of replicates 2.0, Standard deviation 0.219 %) was 6.3%.
On to `O=C(c1cnc2[nH]ncc2c1)N1CCC(c2ccn3ncc(C(=O)N4CCCCC4)c3c2)CC1`, for which the inhibition reads like this: (Concentration 49.75 uM, Number of replicates 2.0, Standard deviation 0.466 %) 15.8%; (Concentration 99.5 uM, Number of replicates 2.0, Standard deviation 6.369 %) 34.4%.
On to `O=C(Nc1ccccc1)Nc1ccc(C(=O)NCCc2cccnc2)cc1`, for which the inhibition stood at 1.27% (Concentration 49.75 uM, Number of replicates 2.0, Standard deviation 2.77 %) and 10.4% (Concentration 99.5 uM, Number of replicates 2.0, Standard deviation 0.373 %).
In the case of `CC(C)(c1noc(-c2ncnc3[nH]ccc23)n1)S(C)(=O)=O`, the inhibition (Concentration 50.0 uM, Number of replicates 2.0, Standard deviation 1.059 %) is -0.756%.
Turning to `Cc1nccc(C(=O)N2CCC(c3ccn4ncc(C(=O)N5CCCCC5)c4c3)CC2)n1`, the inhibition is 16.5% (Concentration 49.75 uM, Number of replicates 2.0, Standard deviation 2.531 %) and 27.4% (Concentration 99.5 uM, Number of replicates 2.0, Standard deviation 1.199 %).
Take `Cc1cccc(C)c1-n1nnnc1CSc1ncnc2[nH]cnc12`: the inhibition (Concentration 50.0 uM, Number of replicates 2.0, Standard deviation 4.544 %) is 6.63%.
For `O=C(c1cncc(O)n1)N1CCC(c2ccn3ncc(C(=O)N4CCCCC4)c3c2)CC1`, the inhibition stood at 26.6% (Concentration 49.75 uM, Number of replicates 2.0, Standard deviation 0.648 %) and 41.9% (Concentration 99.5 uM, Number of replicates 2.0, Standard deviation 1.31 %).
Consider `O=C(Nc1cnc2[nH]ncc2c1)c1ccncc1Cl`, for which the inhibition runs as follows: (Concentration 50.0 uM, Number of replicates 2.0, Standard deviation 1.31 %) -2.75%; (Concentration 50.0 uM, Number of replicates 2.0, Standard deviation 1.931 %) -0.272%; (Concentration 100.0 uM, Number of replicates 2.0, Standard deviation 1.828 %) 2.96%.
